Assay results published in PubChem BioAssay AID248 (DTP/NCI, 2004).
Where “and” joins values, the source holds several entries; their conditions need not be identical. Equal entries are not always repeated. Toxic doses and inconclusive results are not listed. No stated cut-off is given here; in the data, active means T/C of 150% or more; inactive means T/C below 125%.

Test system: L1210 leukemia ip in BDF1 mice, survival T/C
Assay: NCI In Vivo Anticancer Drug Screen. Data for tumor model L1210 Leukemia (intraperitoneal) in B6D2F1 (BDF1) mice
Conditions: endpoint: mean survival time, higher = longer survival
Procedure, shortened: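 Antitumor effect is assessed in tumor-bearing animals. Survival in the compound arm is compared with a vehicle-dosed control arm and expressed as their quotient.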

[1] = dose: 100.0 mg/kg/injection, schedule: Q01DX001 (ip), vehicle: saline with Tween-80
[2] = dose: 100.0 mg/kg/injection, schedule: Q01DX009 (ip), vehicle: saline with Tween-80
[3] = dose: 100.0 mg/kg/injection, schedule: Q04DX003 (ip), vehicle: saline with Tween-80
[4] = dose: 200.0 mg/kg/injection, schedule: Q01DX001 (ip), vehicle: saline with Tween-80
[5] = dose: 200.0 mg/kg/injection, schedule: Q01DX009 (ip), vehicle: saline with Tween-80
[6] = dose: 400.0 mg/kg/injection, schedule: Q01DX001 (ip), vehicle: saline with Tween-80
[7] = dose: 400.0 mg/kg/injection, schedule: Q01DX009 (ip), vehicle: saline with Tween-80
[8] = dose: 400.0 mg/kg/injection, schedule: Q04DX003 (ip), vehicle: saline with Tween-80
[9] = dose: 100.0 mg/kg/injection, schedule: Q01DX001 (ip), vehicle: saline
[10] = dose: 200.0 mg/kg/injection, schedule: Q01DX001 (ip), vehicle: saline
[11] = dose: 400.0 mg/kg/injection, schedule: Q01DX001 (ip), vehicle: saline
[12] = dose: 100.0 mg/kg/injection, schedule: Q01DX009 (ip), vehicle: saline
[13] = dose: 200.0 mg/kg/injection, schedule: Q01DX009 (ip), vehicle: saline
[14] = dose: 100.0 mg/kg/injection, schedule: Q04DX003 (ip), vehicle: saline
[15] = dose: 200.0 mg/kg/injection, schedule: Q04DX003 (ip), vehicle: saline
[16] = dose: 400.0 mg/kg/injection, schedule: Q04DX003 (ip), vehicle: saline
[17] = dose: 200.0 mg/kg/injection, schedule: Q04DX003 (ip), vehicle: saline with Tween-80
[18] = dose: 50.0 mg/kg/injection, schedule: Q01DX009 (ip), vehicle: saline
[19] = dose: 100.0 mg/kg/injection, schedule: Q01DX009 (ip), vehicle: Klucel (hydroxypropylcellulose) (HPC)
[20] = dose: 200.0 mg/kg/injection, schedule: Q01DX009 (ip), vehicle: Klucel (hydroxypropylcellulose) (HPC)
[21] = dose: 400.0 mg/kg/injection, schedule: Q01DX009 (ip), vehicle: Klucel (hydroxypropylcellulose) (HPC)

Measured: T/C

Cc1ccc(Cl)cc1NC(=O)Nc1cc(Cl)c(Cl)cc1C
inactive: dose: 50.0 mg/kg/injection, schedule: Q04DX003 (ip), vehicle: saline with Tween-80 94 % of control and 88 % of control | [1] 100 % of control | [2] 95 % of control and 97 % of control | dose: 100.0 mg/kg/injection, schedule: Q04DX002 (ip), vehicle: saline with Tween-80 95 % of control and 106 % of control | [3] 96 % of control | [4] 86 % of control | [5] 93 % of control and 97 % of control | dose: 200.0 mg/kg/injection, schedule: Q04DX002 (ip), vehicle: saline with Tween-80 97 % of control and 88 % of control | [6] 89 % of control | [7] 98 % of control and 105 % of control | dose: 400.0 mg/kg/injection, schedule: Q04DX002 (ip), vehicle: saline with Tween-80 101 % of control and 92 % of control | [8] 95 % of control and 88 % of control

COc1cccc(CC#N)c1
inactive: dose: 12.5 mg/kg/injection, schedule: Q01DX001 (ip), vehicle: saline with Tween-80 106 % of control | dose: 25.0 mg/kg/injection, schedule: Q01DX001 (ip), vehicle: saline with Tween-80 93 % of control | dose: 50.0 mg/kg/injection, schedule: Q01DX001 (ip), vehicle: saline with Tween-80 97 % of control

Cc1ccc(C)c(OC2CCCCC2=O)c1 (stereo unspecified)
inactive: [9] 100 % of control | [10] 100 % of control | [11] 91 % of control

[O]=[Sn]([OH])[OH]
inactive: [12] 97 % of control | [13] 94 % of control

Cc1ccc(S(=O)(=O)NC(=O)N(C)c2cc(N3CCCC3)ccn2)cc1
inactive: [9] 102 % of control | [10] 96 % of control | [11] 100 % of control

O=[N+]([O-])c1ccc(N/N=C/C#Cc2ccccc2)c([N+](=O)[O-])c1
inactive: dose: 50.0 mg/kg/injection, schedule: Q04DX002 (ip), vehicle: saline with Tween-80 88 % of control

Cc1cc(C)[nH]c(=O)n1
inactive: [12] 98 % of control | [14] 100 % of control | [13] 88 % of control | [15] 94 % of control | [16] 96 % of control

COc1cc(/C=C2\CN(C)C(=O)C2=O)ccc1O
inactive: [2] 101 % of control | [3] 105 % of control | [5] 100 % of control | [17] 98 % of control | [7] 101 % of control | [8] 96 % of control

CC(=O)Nc1nc[nH]c1C(N)=O
inactive: [1] 106 % of control | [4] 105 % of control | [6] 100 % of control

O=S(=O)(CCN1CCCCC1)c1ccc(F)cc1
inactive: [9] 100 % of control | [10] 100 % of control

CCN1CC=CCC1
inactive: dose: 25.0 mg/kg/injection, schedule: Q04DX003 (ip), vehicle: saline 93 % of control | [18] 100 % of control | dose: 50.0 mg/kg/injection, schedule: Q04DX003 (ip), vehicle: saline 98 % of control | [12] 100 % of control | [14] 103 % of control and 91 % of control

C#CC(C)(C)OCC(O)CCl (stereo unspecified)
inactive: [12] 96 % of control | dose: 100.0 mg/kg/injection, schedule: Q04DX003 (ip), vehicle: saline sonified 114 % of control | [13] 89 % of control | dose: 200.0 mg/kg/injection, schedule: Q04DX003 (ip), vehicle: saline sonified 109 % of control | dose: 400.0 mg/kg/injection, schedule: Q04DX003 (ip), vehicle: saline sonified 109 % of control

FCCCC1CCCCN1 (stereo unspecified)
inactive: dose: 12.5 mg/kg/injection, schedule: Q01DX009 (ip), vehicle: saline 98 % of control | dose: 25.0 mg/kg/injection, schedule: Q01DX009 (ip), vehicle: saline 102 % of control | [18] 96 % of control and 109 % of control

CCOC(=O)CCC(NC(=O)c1cccc(N(C)C=O)c1)C(=O)OCC (stereo unspecified)
inactive: dose: 50.0 mg/kg/injection, schedule: Q01DX009 (ip), vehicle: saline with Tween-80 100 % of control | [2] 92 % of control | [5] 93 % of control

CNC(=O)Nc1cccc(C(=O)O)c1
inactive: [19] 98 % of control | [20] 103 % of control | [21] 92 % of control

C/C(=C1/c2ccccc2-c2n[nH]c(C)c21)S(=O)(=O)O
inactive: [2] 95 % of control | [3] 94 % of control | [5] 88 % of control | [17] 105 % of control | [7] 95 % of control | [8] 91 % of control

COC(=O)/C=C\C(=O)NC(C)(C)CC(C)(C)C
inactive: dose: 50.0 mg/kg/injection, schedule: Q01DX001 (ip), vehicle: carboxymethylcellulose (CMC) 100 % of control | dose: 100.0 mg/kg/injection, schedule: Q01DX001 (ip), vehicle: carboxymethylcellulose (CMC) 105 % of control | dose: 200.0 mg/kg/injection, schedule: Q01DX001 (ip), vehicle: carboxymethylcellulose (CMC) 105 % of control | dose: 400.0 mg/kg/injection, schedule: Q01DX001 (ip), vehicle: carboxymethylcellulose (CMC) 96 % of control

O=C(Nc1cc(C(F)(F)F)ccc1Cl)c1ccccc1
inactive: [19] 90 % of control | [14] 117 % of control | [20] 108 % of control | [15] 101 % of control | [21] 111 % of control | [16] 103 % of control

O=C(O)C1C2OC3C(OC(=O)C31)C2Br (stereo unspecified)
inactive: dose: 50.0 mg/kg/injection, schedule: Q04DX002 (ip), vehicle: Klucel (hydroxypropylcellulose) (HPC) 107 % of control | [19] 89 % of control | dose: 100.0 mg/kg/injection, schedule: Q04DX002 (ip), vehicle: Klucel (hydroxypropylcellulose) (HPC) 104 % of control | dose: 100.0 mg/kg/injection, schedule: Q04DX003 (ip), vehicle: Klucel (hydroxypropylcellulose) (HPC) 101 % of control | [20] 91 % of control | dose: 200.0 mg/kg/injection, schedule: Q04DX002 (ip), vehicle: Klucel (hydroxypropylcellulose) (HPC) 100 % of control | dose: 200.0 mg/kg/injection, schedule: Q04DX003 (ip), vehicle: Klucel (hydroxypropylcellulose) (HPC) 92 % of control | [21] 88 % of control | dose: 400.0 mg/kg/injection, schedule: Q04DX002 (ip), vehicle: Klucel (hydroxypropylcellulose) (HPC) 96 % of control | dose: 400.0 mg/kg/injection, schedule: Q04DX003 (ip), vehicle: Klucel (hydroxypropylcellulose) (HPC) 93 % of control

CC1(C)/C(=C\C(=O)O)C2C=CC1C2 (stereo unspecified)
inactive: [9] 94 % of control | dose: 100.0 mg/kg/injection, schedule: Q01DX009 (ip), vehicle: acetone 86 % of control | [14] 114 % of control | [10] 101 % of control | dose: 200.0 mg/kg/injection, schedule: Q01DX009 (ip), vehicle: acetone 91 % of control | [15] 106 % of control | [11] 100 % of control | [16] 102 % of control

COc1ccc(COc2ccc(Cl)cc2)cc1OC
inactive: [3] 109 % of control | [17] 98 % of control | [8] 101 % of control
